Reference: PubChem BioAssay AID1259407 (Chemical Carcinogenesis Research Information System (CCRIS), 2018)
Activity calls are given as the source filed them. How the calls were made is not given here.

System: CCRIS mutagenicity, Ames/micronucleus/aberration tests
Test: CCRIS mutagenicity studies
[1] = Test System: AMES SALMONELLA TYPHIMURIUM, Strain/Indicator: TA98, Metabolic Activation: HAMSTER, LIVER, S-9, AROCLOR 1254 (10%), Method: PREINCUBATION
[2] = Test System: AMES SALMONELLA TYPHIMURIUM, Strain/Indicator: TA98, Metabolic Activation: NONE, Method: PREINCUBATION
[3] = Test System: AMES SALMONELLA TYPHIMURIUM, Strain/Indicator: TA98, Metabolic Activation: RAT, LIVER, S-9, AROCLOR 1254 (10%), Method: PREINCUBATION
[4] = Test System: AMES SALMONELLA TYPHIMURIUM, Strain/Indicator: TA100, Metabolic Activation: HAMSTER, LIVER, S-9, AROCLOR 1254 (10%), Method: PREINCUBATION
[5] = Test System: AMES SALMONELLA TYPHIMURIUM, Strain/Indicator: TA100, Metabolic Activation: NONE, Method: PREINCUBATION
[6] = Test System: AMES SALMONELLA TYPHIMURIUM, Strain/Indicator: TA100, Metabolic Activation: RAT, LIVER, S-9, AROCLOR 1254 (10%), Method: PREINCUBATION
[7] = Test System: AMES SALMONELLA TYPHIMURIUM, Strain/Indicator: TA1535, Metabolic Activation: HAMSTER, LIVER, S-9, AROCLOR 1254 (10%), Method: PREINCUBATION
[8] = Test System: AMES SALMONELLA TYPHIMURIUM, Strain/Indicator: TA1535, Metabolic Activation: NONE, Method: PREINCUBATION
[9] = Test System: AMES SALMONELLA TYPHIMURIUM, Strain/Indicator: TA1535, Metabolic Activation: RAT, LIVER, S-9, AROCLOR 1254 (10%), Method: PREINCUBATION
[10] = Test System: AMES SALMONELLA TYPHIMURIUM, Strain/Indicator: TA1537, Metabolic Activation: HAMSTER, LIVER, S-9, AROCLOR 1254 (10%), Method: PREINCUBATION
[11] = Test System: AMES SALMONELLA TYPHIMURIUM, Strain/Indicator: TA1537, Metabolic Activation: NONE, Method: PREINCUBATION
[12] = Test System: AMES SALMONELLA TYPHIMURIUM, Strain/Indicator: TA1537, Metabolic Activation: RAT, LIVER, S-9, AROCLOR 1254 (10%), Method: PREINCUBATION

For `c1ccc(N(c2ccccc2)c2ccccc2)cc1`, the mutagenic call (Test System: AMES SALMONELLA TYPHIMURIUM, Strain/Indicator: TA97, Metabolic Activation: HAMSTER, LIVER, S-9, AROCLOR 1254 (10 OR 30%), Method: PREINCUBATION) was “inactive; negative”, the mutagenic call (Test System: AMES SALMONELLA TYPHIMURIUM, Strain/Indicator: TA97, Metabolic Activation: NONE, Method: PREINCUBATION) was “inactive; negative” and the mutagenic call (Test System: AMES SALMONELLA TYPHIMURIUM, Strain/Indicator: TA97, Metabolic Activation: RAT, LIVER, S-9, AROCLOR 1254 (10 OR 30%), Method: PREINCUBATION) was “inactive; negative”. The mutagenic call [1] was “inactive; negative”, the mutagenic call (Test System: AMES SALMONELLA TYPHIMURIUM, Strain/Indicator: TA98, Metabolic Activation: HAMSTER, LIVER, S-9, AROCLOR 1254 (10 OR 30%), Method: PREINCUBATION) was “inactive; negative” and the mutagenic call [2] was “inactive; negative”. For the same molecule, the mutagenic call [3] was “inactive; negative”, the mutagenic call (Test System: AMES SALMONELLA TYPHIMURIUM, Strain/Indicator: TA98, Metabolic Activation: RAT, LIVER, S-9, AROCLOR 1254 (10 OR 30%), Method: PREINCUBATION) was “inactive; negative” and the mutagenic call [4] was “inactive; negative”. For the same molecule, the mutagenic call (Test System: AMES SALMONELLA TYPHIMURIUM, Strain/Indicator: TA100, Metabolic Activation: HAMSTER, LIVER, S-9, AROCLOR 1254 (10 OR 30%), Method: PREINCUBATION) was “inactive; negative”, the mutagenic call [5] was “inactive; negative” and the mutagenic call [6] was “inactive; negative”. For the same molecule, the mutagenic call (Test System: AMES SALMONELLA TYPHIMURIUM, Strain/Indicator: TA100, Metabolic Activation: RAT, LIVER, S-9, AROCLOR 1254 (10 OR 30%), Method: PREINCUBATION) was “inactive; negative”, the mutagenic call [7] was “inactive; negative” and the mutagenic call (Test System: AMES SALMONELLA TYPHIMURIUM, Strain/Indicator: TA1535, Metabolic Activation: HAMSTER, LIVER, S-9, AROCLOR 1254 (10 OR 30%), Method: PREINCUBATION) was “inactive; negative”. The mutagenic call [8] was “inactive; negative”, the mutagenic call [9] was “inactive; negative” and the mutagenic call (Test System: AMES SALMONELLA TYPHIMURIUM, Strain/Indicator: TA1535, Metabolic Activation: RAT, LIVER, S-9, AROCLOR 1254 (10 OR 30%), Method: PREINCUBATION) was “inactive; negative”. The mutagenic call [10] was “inactive; negative”, the mutagenic call (Test System: AMES SALMONELLA TYPHIMURIUM, Strain/Indicator: TA1537, Metabolic Activation: HAMSTER, LIVER, S-9, AROCLOR 1254 (10 OR 30%), Method: PREINCUBATION) was “inactive; negative” and the mutagenic call [11] was “inactive; negative”. For the same molecule, the mutagenic call [12] was “inactive; negative” and the mutagenic call (Test System: AMES SALMONELLA TYPHIMURIUM, Strain/Indicator: TA1537, Metabolic Activation: RAT, LIVER, S-9, AROCLOR 1254 (10 OR 30%), Method: PREINCUBATION) was “inactive; negative”.
For `CCCCCCCCCCCCS`, the mutagenic call [1] was “inactive; negative”, the mutagenic call (Test System: AMES SALMONELLA TYPHIMURIUM, Strain/Indicator: TA98, Metabolic Activation: HAMSTER, LIVER, S-9, AROCLOR 1254, Method: STANDARD PLATE) was “inactive; negative” and the mutagenic call [2] was “inactive; negative”. For the same molecule, the mutagenic call (Test System: AMES SALMONELLA TYPHIMURIUM, Strain/Indicator: TA98, Metabolic Activation: NONE, Method: STANDARD PLATE) was “inactive; negative”, the mutagenic call [3] was “inactive; negative” and the mutagenic call (Test System: AMES SALMONELLA TYPHIMURIUM, Strain/Indicator: TA98, Metabolic Activation: RAT, LIVER, S-9, AROCLOR 1254, Method: STANDARD PLATE) was “inactive; negative”. For the same molecule, the mutagenic call [4] was “inactive; negative”, the mutagenic call (Test System: AMES SALMONELLA TYPHIMURIUM, Strain/Indicator: TA100, Metabolic Activation: HAMSTER, LIVER, S-9, AROCLOR 1254, Method: STANDARD PLATE) was “inactive; negative” and the mutagenic call [5] was “inactive; negative”. For the same molecule, the mutagenic call (Test System: AMES SALMONELLA TYPHIMURIUM, Strain/Indicator: TA100, Metabolic Activation: NONE, Method: STANDARD PLATE) was “inactive; negative”, the mutagenic call [6] was “inactive; negative” and the mutagenic call (Test System: AMES SALMONELLA TYPHIMURIUM, Strain/Indicator: TA100, Metabolic Activation: RAT, LIVER, S-9, AROCLOR 1254, Method: STANDARD PLATE) was “inactive; negative”. For the same molecule, the mutagenic call [7] was “inactive; negative”, the mutagenic call (Test System: AMES SALMONELLA TYPHIMURIUM, Strain/Indicator: TA1535, Metabolic Activation: HAMSTER, LIVER, S-9, AROCLOR 1254, Method: STANDARD PLATE) was “inactive; negative” and the mutagenic call [8] was “inactive; negative”. For the same molecule, the mutagenic call (Test System: AMES SALMONELLA TYPHIMURIUM, Strain/Indicator: TA1535, Metabolic Activation: NONE, Method: STANDARD PLATE) was “inactive; negative”, the mutagenic call [9] was “inactive; negative” and the mutagenic call (Test System: AMES SALMONELLA TYPHIMURIUM, Strain/Indicator: TA1535, Metabolic Activation: RAT, LIVER, S-9, AROCLOR 1254, Method: STANDARD PLATE) was “inactive; negative”. The mutagenic call [10] was “inactive; negative”, the mutagenic call (Test System: AMES SALMONELLA TYPHIMURIUM, Strain/Indicator: TA1537, Metabolic Activation: HAMSTER, LIVER, S-9, AROCLOR 1254, Method: STANDARD PLATE) was “inactive; negative” and the mutagenic call [11] was “inactive; negative”. For the same molecule, the mutagenic call (Test System: AMES SALMONELLA TYPHIMURIUM, Strain/Indicator: TA1537, Metabolic Activation: NONE, Method: STANDARD PLATE) was “inactive; negative”, the mutagenic call [12] was “inactive; negative” and the mutagenic call (Test System: AMES SALMONELLA TYPHIMURIUM, Strain/Indicator: TA1537, Metabolic Activation: RAT, LIVER, S-9, AROCLOR 1254, Method: STANDARD PLATE) was “inactive; negative”. For the same molecule, the mutagenic call (Test System: AMES SALMONELLA TYPHIMURIUM, Strain/Indicator: TA1538, Metabolic Activation: HAMSTER, LIVER, S-9, AROCLOR 1254, Method: STANDARD PLATE) was “inactive; negative”, the mutagenic call (Test System: AMES SALMONELLA TYPHIMURIUM, Strain/Indicator: TA1538, Metabolic Activation: NONE, Method: STANDARD PLATE) was “inactive; negative” and the mutagenic call (Test System: AMES SALMONELLA TYPHIMURIUM, Strain/Indicator: TA1538, Metabolic Activation: RAT, LIVER, S-9, AROCLOR 1254, Method: STANDARD PLATE) was “inactive; negative”. The mutagenic call (Test System: MOUSE LYMPHOMA, Strain/Indicator: L5178Y (TK+/TK-), Metabolic Activation: NONE, Method: SUSPENSION/PLATE) was “inactive; negative. reevaluation of results: negative” and the mutagenic call (Test System: MOUSE LYMPHOMA, Strain/Indicator: L5178Y (TK+/TK-), Metabolic Activation: RAT, LIVER, S-9, AROCLOR 1254, Method: SUSPENSION/PLATE) was “inactive; negative. reevaluation of results: negative”.
`CN(C)c1ccc(N=Nc2cccc(CCl)c2)cc1` was tested, and the mutagenic call (Test System: AMES SALMONELLA TYPHIMURIUM, Strain/Indicator: TA98, Metabolic Activation: RAT, LIVER, S-9, POLYCHLORINATED BIPHENYLS, Method: PREINCUBATION) was “active; positive” and the mutagenic call (Test System: AMES SALMONELLA TYPHIMURIUM, Strain/Indicator: TA100, Metabolic Activation: RAT, LIVER, S-9, POLYCHLORINATED BIPHENYLS, Method: PREINCUBATION) was “active; positive”.
